Measured values: the supplement of paper PMC11061612

Columns and labels:
Experiment in all cases: Bliss excess, mean over the matrix (fraction); higher = more synergy
[1] = test system: HCT-15 (Colorectal Carcinoma)
Procedure, shortened: (§1)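 Bliss excess equals the observed combination effect minus the expected value EA + EB − EA·EB, where EA and EB are the effects of each agent alone. Combination Emax is the second-highest inhibition within the matrix. Inhibition was scaled from CellTiter-Glo 2.0 luminescence, with 0 set by vehicle wells and 1 by blank wells, after 72 hours of two-drug dosing of cells plated in 1536-well plates.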

[2] = test system: COLO-680N (Esophageal Squamous Cell Carcinoma)
Procedure, shortened: as §1

[3] = test system: RCM-1 (Colorectal Carcinoma)
Procedure, shortened: as §1

LN-229 (Glioblastoma) = test system: LN-229 (Glioblastoma)
Procedure, shortened: as §1

[4] = test system: FADU (Head and Neck Carcinoma)
Procedure, shortened: as §1

IST-MES1 (Mesothelioma) = test system: IST-MES1 (Mesothelioma)
Procedure, shortened: as §1

[5] = test system: NCI-H23 (Lung Adenocarcinoma)
Procedure, shortened: as §1

[6] = test system: OPM-2 (Plasma Cell Myeloma)
Procedure, shortened: as §1

[7] = test system: SK-PN-DW (Other Solid Carcinomas)
Procedure, shortened: as §1

[8] = test system: PC-3_[JPC-3] (Lung Adenocarcinoma)
Procedure, shortened: as §1

[9] = test system: RERF-GC-1B (Gastric Carcinoma)
Procedure, shortened: as §1

[10] = test system: NCI-H446 (Small Cell Lung Carcinoma)
Procedure, shortened: as §1

[11] = test system: SHP-77 (Small Cell Lung Carcinoma)
Procedure, shortened: as §1

[12] = test system: NCI-H2342 (Lung Adenocarcinoma)
Procedure, shortened: as §1

[13] = test system: MKN45 (Gastric Carcinoma)
Procedure, shortened: as §1

[14] = test system: MFE-280 (Endometrial Carcinoma)
Procedure, shortened: as §1

[15] = test system: PANC-03-27 (Pancreatic Carcinoma)
Procedure, shortened: as §1

[16] = test system: HEC-1 (Endometrial Carcinoma)
Procedure, shortened: as §1

[17] = test system: OVMIU (Ovarian Carcinoma)
Procedure, shortened: as §1

| SMILES | Bliss excess [1] | Bliss excess [2] | Bliss excess [3] | Bliss excess (LN-229 (Glioblastoma)) | Bliss excess [4] | Bliss excess (IST-MES1 (Mesothelioma)) | Bliss excess [5] | Bliss excess [6] | Bliss excess [7] | Bliss excess [8] | Bliss excess [9] | Bliss excess [10] | Bliss excess [11] | Bliss excess [12] | Bliss excess [13] | Bliss excess [14] | Bliss excess [15] | Bliss excess [16] | Bliss excess [17] |
| --- | --- | --- | --- | --- | --- | --- | --- | --- | --- | --- | --- | --- | --- | --- | --- | --- | --- | --- | --- |
| CN(C)CCCOc1ccc(-c2ccc3ncc4c(c3c2)n(C2CCOCC2)c(=O)n4C)cn1 [AZD0156] + C[C@@H]1COCCN1C2=NC(=NC(=C2)C3(CC3)[S@](=N)(=O)C)C4=C5C=CNC5=NC=C4 [AZD6738] (first compound max 1 µM, 7x7, partner max 10 µM) | 0.0663 | -0.0311 | -0.0343 | -0.0412 | 0.0537 | -0.0679 | -0.0218 | 0.0261 | -0.075 | -0.006 | 0.0249 | 0.0625 | 0.0535 | -0.0487 | 0.0072 | -0.0116 | -0.0078 | -0.004 | -0.0072 |
| CCN(CCO)CCCOc1ccc2c(Nc3cc(CC(=O)Nc4cccc(F)c4)[nH]n3)ncnc2c1 [AZD2811] + O=C(c1cc(Cc2n[nH]c(=O)c3ccccc23)ccc1F)N1CCN(C(=O)C2CC2)CC1 [Olaparib] (first compound max 1 µM, 7x7, partner max 10 µM) | -0.0009 | -0.0439 | -0.04 | -0.0223 | 0.0347 | -0.0102 | 0.0076 | 0.015 | -0.0482 | -0.0067 | -0.0572 | -0.0882 | -0.0191 | -0.02 | -0.0434 | 0.0174 | -0.0161 | -0.0059 | -0.0509 |
| Cc1cc2ncnn2cc1Nc1ncc2c(n1)n(C1CCOCC1)c(=O)n2C [AZD7648] + CCN(CCO)CCCOc1ccc2c(Nc3cc(CC(=O)Nc4cccc(F)c4)[nH]n3)ncnc2c1 [AZD2811] (first compound max 10 µM, 7x7, partner max 1 µM) | -0.003 | -0.0458 | -0.032 | 0.0148 | 0.0177 | 0.0188 | 0.016 | 0.0791 | 0.105 | -0.0044 | 0.0209 | -0.0157 | -0.0244 | -0.0084 | -0.0635 | 0.019 | -0.0255 | -0.0269 | -0.0159 |
| Cc1cc2ncnn2cc1Nc1ncc2c(n1)n(C1CCOCC1)c(=O)n2C [AZD7648] + C[C@@H]1COCCN1C2=NC(=NC(=C2)C3(CC3)[S@](=N)(=O)C)C4=C5C=CNC5=NC=C4 [AZD6738] (first compound max 10 µM, 7x7, partner max 10 µM) | -0.0312 | 0.0237 | 0.0223 | -0.0085 | -0.0093 | 0.0176 | -0.0617 | 0.0254 | 0.0154 | 0.0627 | 0.0094 | 0.0335 | -0.0139 | 0.0271 | -0.0406 | 0.0174 | 0.0016 | -0.0339 | 0.0527 |
| COc1cccc(OCCCN)c1-c1cc(Nc2cnc(C#N)cn2)n[nH]1 [Prexasertib] + C=CCn1c(=O)c2cnc(Nc3ccc(N4CCN(C)CC4)cc3)nc2n1-c1cccc(C(C)(C)O)n1 [AZD1775] (first compound max 1 µM, partner max 1 µM) | 0.0406 | -0.0054 | -0.0248 | -0.0177 | 0.084 | 0.127 | 0.0334 | 0.0569 | 0.0025 | 0.0258 | 0.049 | 0.0829 | 0.0413 | -0.0136 | -0.0561 | 0.176 | -0.0327 | 0.109 | 0.0574 |
| COc1cccc(OCCCN)c1-c1cc(Nc2cnc(C#N)cn2)n[nH]1 [Prexasertib] + Cc1cc2ncnn2cc1Nc1ncc2c(n1)n(C1CCOCC1)c(=O)n2C [AZD7648] (first compound max 1 µM, 7x7, partner max 10 µM) | -0.0449 | -0.0491 | -0.0166 | -0.0596 | -0.0383 | -0.0032 | -0.026 | -0.0341 | -0.0503 | -0.0103 | 0.0015 | -0.008 | -0.0143 | -0.0216 | -0.0229 | 0.0032 | -0.0606 | 0.0762 | -0.0211 |
| CCN(CCO)CCCOc1ccc2c(Nc3cc(CC(=O)Nc4cccc(F)c4)[nH]n3)ncnc2c1 [AZD2811] + C[C@@H]1COCCN1C2=NC(=NC(=C2)C3(CC3)[S@](=N)(=O)C)C4=C5C=CNC5=NC=C4 [AZD6738] (first compound max 1 µM, 7x7, partner max 10 µM) | -0.0592 | -0.0737 | -0.0263 | -0.0563 | -0.0165 | -0.0613 | -0.0308 | -0.0187 | -0.0306 | -0.0453 | 0.0143 | -0.0514 | -0.0583 | -0.0706 | -0.0439 | -0.0223 | -0.123 | -0.0175 | -0.0446 |
| CN(C)CCCOc1ccc(-c2ccc3ncc4c(c3c2)n(C2CCOCC2)c(=O)n4C)cn1 [AZD0156] + C=CCn1c(=O)c2cnc(Nc3ccc(N4CCN(C)CC4)cc3)nc2n1-c1cccc(C(C)(C)O)n1 [AZD1775] (first compound max 1 µM, partner max 1 µM) | 0.0622 | -0.0252 | -0.0621 | -0.0831 | 0.0316 | -0.0624 | -0.0406 | -0.0607 | -0.0282 | -0.0018 | -0.0318 | -0.0399 | -0.0219 | -0.0612 | -0.0774 | 0.0145 | -0.063 | -0.0257 | -0.0113 |
| COc1cccc(OCCCN)c1-c1cc(Nc2cnc(C#N)cn2)n[nH]1 [Prexasertib] + C[C@@H]1COCCN1C2=NC(=NC(=C2)C3(CC3)[S@](=N)(=O)C)C4=C5C=CNC5=NC=C4 [AZD6738] (first compound max 1 µM, 7x7, partner max 10 µM) | 0.0391 | 0.0342 | -0.0307 | -0.0577 | -0.0333 | 0.0093 | -0.0504 | -0.0663 | -0.0438 | 0.0576 | -0.119 | 0.0078 | 0.0645 | 0.0378 | -0.0931 | -0.024 | -0.0577 | -0.0434 | 0.0388 |
| Cc1cc2ncnn2cc1Nc1ncc2c(n1)n(C1CCOCC1)c(=O)n2C [AZD7648] + C=CCn1c(=O)c2cnc(Nc3ccc(N4CCN(C)CC4)cc3)nc2n1-c1cccc(C(C)(C)O)n1 [AZD1775] (first compound max 10 µM, partner max 1 µM) | -0.055 | -0.012 | 0.0248 | -0.0067 | -0.0112 | -0.002 | -0.0363 | -0.0006 | -0.145 | 0.0063 | -0.0936 | -0.0228 | -0.0798 | -0.0023 | -0.0887 | -0.0406 | -0.048 | -0.0318 | 0.0747 |
| CCN(CCO)CCCOc1ccc2c(Nc3cc(CC(=O)Nc4cccc(F)c4)[nH]n3)ncnc2c1 [AZD2811] + C=CCn1c(=O)c2cnc(Nc3ccc(N4CCN(C)CC4)cc3)nc2n1-c1cccc(C(C)(C)O)n1 [AZD1775] (first compound max 1 µM, partner max 1 µM) | 0.156 | -0.0147 | 0.0398 | -0.0363 | 0.0047 | -0.04 | -0.0005 | -0.0606 | 0.0431 | -0.0752 | 0.0335 | 0.015 | 0.0241 | -0.0052 | -0.0302 | 0.0727 | 0.001 | 0.0124 | -0.088 |
| CCc1c2c(nc3ccc(O)cc13)-c1cc3c(c(=O)n1C2)COC(=O)[C@]3(O)CC [SN-38] + CN(C)CCCOc1ccc(-c2ccc3ncc4c(c3c2)n(C2CCOCC2)c(=O)n4C)cn1 [AZD0156] (first compound max 0.3 µM, 7x7, partner max 1 µM) | 0.0187 | 0.0306 | -0.0005 | -0.0305 | -0.0007 | 0.0085 | -0.0247 | 0.0104 | 0.0355 | -0.0551 | 0.0092 | 0.121 | 0.0296 | -0.0425 | -0.049 | -0.0605 | -0.0071 | -0.0374 | -0.0047 |
| CCc1c2c(nc3ccc(O)cc13)-c1cc3c(c(=O)n1C2)COC(=O)[C@]3(O)CC [SN-38] + O=C(c1cc(Cc2n[nH]c(=O)c3ccccc23)ccc1F)N1CCN(C(=O)C2CC2)CC1 [Olaparib] (first compound max 0.3 µM, 7x7, partner max 10 µM) | 0.0754 | 0.0012 | -0.0176 | – | 0.086 | -0.0582 | – | 0.0082 | 0.0708 | 0.113 | – | 0.0477 | 0.0235 | 0.0154 | -0.0495 | 0.0167 | 0.0498 | 0.0181 | 0.0409 |
| CN(C)CCCOc1ccc(-c2ccc3ncc4c(c3c2)n(C2CCOCC2)c(=O)n4C)cn1 [AZD0156] + CCN(CCO)CCCOc1ccc2c(Nc3cc(CC(=O)Nc4cccc(F)c4)[nH]n3)ncnc2c1 [AZD2811] (first compound max 1 µM, 7x7, partner max 1 µM) | 0.0156 | -0.0404 | -0.0241 | -0.0331 | 0.0626 | -0.0439 | -0.0119 | 0.041 | 0.0147 | -0.0524 | 0.0292 | -0.0587 | -0.034 | -0.054 | 0.0034 | 0.0072 | -0.0519 | -0.0152 | -0.0411 |
| COc1cccc2c1C(=O)c1c(O)c3c(c(O)c1C2=O)C[C@@](O)(C(=O)CO)C[C@@H]3O[C@H]1C[C@H](N)[C@H](O)[C@H](C)O1 [Doxorubicin] + Cc1cc2ncnn2cc1Nc1ncc2c(n1)n(C1CCOCC1)c(=O)n2C [AZD7648] (first compound max 1 µM, 7x7, partner max 10 µM) | 0.0644 | 0.0063 | 0.0199 | -0.0159 | 0.126 | 0.0455 | 0.0413 | 0.0221 | 0.105 | -0.027 | -0.0142 | 0.0855 | 0.0556 | 0.0128 | 0.0162 | 0.0107 | 0.0557 | 0.004 | -0.0193 |
| C=CCn1c(=O)c2cnc(Nc3ccc(N4CCN(C)CC4)cc3)nc2n1-c1cccc(C(C)(C)O)n1 [AZD1775] + O=C(c1cc(Cc2n[nH]c(=O)c3ccccc23)ccc1F)N1CCN(C(=O)C2CC2)CC1 [Olaparib] (first compound max 1 µM, partner max 10 µM) | -0.0674 | -0.0482 | -0.0861 | -0.0851 | -0.0303 | -0.0409 | -0.035 | -0.0561 | -0.0694 | -0.0515 | -0.0124 | 0.0223 | -0.0436 | -0.0372 | -0.005 | -0.0652 | -0.032 | 0.0039 | -0.0135 |
